Source: US20120309734A1, “COMBRETASTATIN DERIVATIVES AND USES THEREFOR” (priority 2009, published 2012)

Tests used:
TK-10 = test: NCI60 cell line screen; conditions: Homo sapiens
SF-295 = test: NCI60 cell line screen; conditions: Homo sapiens
RPMI-8226 = test: NCI60 cell line screen; conditions: Homo sapiens
BT-549 = test: NCI60 cell line screen; conditions: Homo sapiens
MDA-MB-468 = test: NCI60 cell line screen; conditions: Homo sapiens
NCI-H23 = test: NCI60 cell line screen; conditions: Homo sapiens
COLO 205 = test: NCI60 cell line screen; conditions: Homo sapiens
MDA-MB-435 = test: NCI60 cell line screen; conditions: Homo sapiens
LOX IMVI = test: NCI60 cell line screen; conditions: Homo sapiens
MCF-7 = test: NCI60 cell line screen; conditions: Homo sapiens, MCF7
T-47D = test: NCI60 cell line screen; conditions: Homo sapiens, T47D
NCI-H460 = test: NCI60 cell line screen; conditions: Homo sapiens
CCRF-CEM = test: NCI60 cell line screen; conditions: Homo sapiens
A498 = test: NCI60 cell line screen; conditions: Homo sapiens
EKVX = test: NCI60 cell line screen; conditions: Homo sapiens
NCI/ADR-RES = test: NCI60 cell line screen; conditions: Homo sapiens
SK-MEL-2 = test: NCI60 cell line screen; conditions: Homo sapiens
CAKI-1 = test: NCI60 cell line screen; conditions: Homo sapiens
HOP-92 = test: NCI60 cell line screen; conditions: Homo sapiens
SW-620 = test: NCI60 cell line screen; conditions: Homo sapiens
HCT-2998 = test: NCI60 cell line screen
SF-268 = test: NCI60 cell line screen; conditions: Homo sapiens
786-0 = test: NCI60 cell line screen; conditions: Homo sapiens
UO-31 = test: NCI60 cell line screen; conditions: Homo sapiens
RXF 393 = test: NCI60 cell line screen; conditions: Homo sapiens
M14 = test: NCI60 cell line screen; conditions: Homo sapiens
SN12C = test: NCI60 cell line screen; conditions: Homo sapiens
HL-60(TB) = test: NCI60 cell line screen; conditions: Homo sapiens
SK-MEL-5 = test: NCI60 cell line screen; conditions: Homo sapiens
OVCAR-5 = test: NCI60 cell line screen; conditions: Homo sapiens
SNB-19 = test: NCI60 cell line screen; conditions: Homo sapiens
UACC-257 = test: NCI60 cell line screen; conditions: Homo sapiens
DU-145 = test: NCI60 cell line screen; conditions: Homo sapiens
SF-539 = test: NCI60 cell line screen; conditions: Homo sapiens
NCI-H226 = test: NCI60 cell line screen; conditions: Homo sapiens
HCT-116 = test: NCI60 cell line screen; conditions: Homo sapiens
KM12 = test: NCI60 cell line screen; conditions: Homo sapiens

Structure (SMILES) | GI50 (TK-10) | GI50 (SF-295) | GI50 (RPMI-8226) | GI50 (BT-549) | GI50 (MDA-MB-468) | GI50 (NCI-H23) | GI50 (COLO 205) | GI50 (MDA-MB-435) | GI50 (LOX IMVI) | GI50 (MCF-7) | GI50 (T-47D) | GI50 (NCI-H460) | GI50 (CCRF-CEM) | GI50 (A498) | GI50 (EKVX) | GI50 (NCI/ADR-RES) | GI50 (SK-MEL-2) | melting point | GI50 (CAKI-1) | GI50 (HOP-92) | also measured
COc1ccc(C2C(c3ccccc3)C(=O)N2c2cc(OC)c(OC)c(OC)c2)cc1O (stereo not drawn) [Compound 4, 4-(3-Hydroxy-4-methoxyphenyl)-3-phenyl-1-(3,4,5-trimethoxyphenyl)-azetidin-2-one] | < 0.01 µM | < 0.01 µM | < 0.01 µM | < 0.01 µM | < 0.01 µM | < 0.01 µM | 0.019 µM | < 0.01 µM | < 0.01 µM | < 0.01 µM | 31.2 µM | < 0.01 µM | < 0.01 µM | < 0.01 µM | < 0.01 µM | < 0.01 µM | 0.014 µM | 110 °C | < 0.01 µM | 5.15 µM | GI50 (SW-620): < 0.01 µM; GI50 (HCT-2998): 0.035 µM; GI50 (SF-268): < 0.01 µM; GI50 (786-0): 0.034 µM; GI50 (UO-31): 0.032 µM; GI50 (RXF 393): < 0.01 µM; GI50 (M14): < 0.01 µM; GI50 (SN12C): < 0.01 µM; GI50 (HL-60(TB)): < 0.01 µM; GI50 (SK-MEL-5): < 0.01 µM; GI50 (OVCAR-5): 0.038 µM; GI50 (SNB-19): 0.025 µM; GI50 (UACC-257): 22.4 µM; GI50 (DU-145): < 0.01 µM; GI50 (SF-539): < 0.01 µM; GI50 (NCI-H226): < 0.01 µM; GI50 (HCT-116): < 0.01 µM; GI50 (KM12): < 0.01 µM
COc1ccc(C2C(c3cccs3)C(=O)N2c2cc(OC)c(OC)c(OC)c2)cc1 (stereo not drawn) [Compound 12, 4-(4-Methoxyphenyl)-3-thiophen-2-yl-1-(3,4,5-trimethoxyphenyl)-azetidin-2-one] | < 0.01 µM | < 0.01 µM | < 0.01 µM | < 0.01 µM | < 0.01 µM | 0.036 µM | 0.015 µM | < 0.01 µM | < 0.01 µM | < 0.01 µM | > 1000 µM | 0.03 µM | < 0.01 µM | < 0.01 µM | 0.034 µM | < 0.01 µM | 7.79 µM | 115 °C | 0.016 µM | 0.051 µM | GI50 (SW-620): 0.01 µM; GI50 (HCT-2998): 0.03 µM; GI50 (SF-268): 0.028 µM; GI50 (786-0): 0.031 µM; GI50 (UO-31): 0.038 µM; GI50 (RXF 393): < 0.01 µM; GI50 (M14): < 0.01 µM; GI50 (SN12C): < 0.01 µM; GI50 (HL-60(TB)): < 0.01 µM; GI50 (SK-MEL-5): 0.014 µM; GI50 (OVCAR-5): 0.051 µM; GI50 (SNB-19): 0.043 µM; GI50 (UACC-257): 67.8 µM; GI50 (DU-145): < 0.01 µM; GI50 (SF-539): < 0.01 µM; GI50 (NCI-H226): < 0.01 µM; GI50 (HCT-116): < 0.01 µM; GI50 (KM12): < 0.01 µM
COc1ccc(C2C(c3ccccc3)C(=O)N2c2cc(OC)c(OC)c(OC)c2)cc1 (stereo not drawn) [Compound 8, 4-(4-Methoxy-phenyl)-3-phenyl-1-(3,4,5-trimethoxy-phenyl)-azetidin-2-one] | 6.78 µM | 0.035 µM | 0.0293 µM | 0.117 µM | 0.0684 µM | 0.427 µM | 0.166 µM | 0.0239 µM | 0.0676 µM | 0.0351 µM | > 100 µM | 0.198 µM | 0.0372 µM | 0.0375 µM | 0.352 µM | 0.0425 µM | > 100 µM | 108 °C | 0.0848 µM | 22.7 µM | GI50 (SW-620): 0.0487 µM; GI50 (HCT-2998): 0.349 µM; GI50 (SF-268): 0.354 µM; GI50 (786-0): 0.432 µM; GI50 (UO-31): 0.396 µM; GI50 (RXF 393): 0.0365 µM; GI50 (M14): 0.132 µM; GI50 (SN12C): 0.312 µM; GI50 (HL-60(TB)): 0.0162 µM; GI50 (SK-MEL-5): 0.124 µM; GI50 (OVCAR-5): 0.668 µM; GI50 (SNB-19): 0.28 µM; GI50 (UACC-257): 27.9 µM; GI50 (DU-145): 0.0569 µM; GI50 (SF-539): 0.033 µM; GI50 (NCI-H226): 0.263 µM; GI50 (HCT-116): 0.0398 µM; GI50 (KM12): 0.0427 µM
